Data reported in patent US6737383B1, “Herbicidal oxadiazolidines” (priority 1999, dated 2004).

What was measured:
blackgrass = experiment: Test B pre/postemergence blackgrass; type: in vivo, Alopecurus myosuroides
Outline: (§1)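 Response is a visual 0-to-10 score relative to untreated plants, where 0 means no effect and 10 means complete control, taken twelve to sixteen days after application. Treatments went onto soil at planting and onto foliage of 1- to 4-leaf plants, using a surfactant-containing non-phytotoxic solvent.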

surinam grass = experiment: Test B pre/postemergence surinam grass; type: in vivo, Brachiaria decumbens
Outline: as §1

cocklebur = experiment: Test B pre/postemergence cocklebur; type: in vivo, Xanthium strumarium
Outline: as §1

corn = experiment: Test B pre/postemergence corn; type: in vivo, Zea mays
Outline: as §1

crabgrass = experiment: Test B pre/postemergence crabgrass; type: in vivo, Digitaria sanguinalis
Outline: as §1

giant foxtail = experiment: Test B pre/postemergence giant foxtail; type: in vivo, Setaria faberii
Outline: as §1

morningglory = experiment: Test B pre/postemergence morningglory; type: in vivo, Ipomoea hederacea
Outline: as §1

pigweed = experiment: Test B pre/postemergence pigweed; type: in vivo, Amaranthus retroflexus
Outline: as §1

rape = experiment: Test B pre/postemergence rape; type: in vivo, Brassica napus
Outline: as §1

sugar beet = experiment: Test B pre/postemergence sugar beet; type: in vivo, Beta vulgaris
Outline: as §1

wheat = experiment: Test B pre/postemergence wheat; type: in vivo, Triticum aestivum
Outline: as §1

wild oat = experiment: Test B pre/postemergence wild oat; type: in vivo, Avena fatua
Outline: as §1

purple nutsedge = experiment: Test B pre/postemergence purple nutsedge; type: in vivo, Cyperus rotundus
Outline: as §1

rice = experiment: Test B flood test rice; type: in vivo, Oryza sativa; details: for Rice plant response rating: scale of 0 to 10 where 0 is no effect and 10 is complete control
Outline: (§2)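 Each value is a visual injury score relative to controls, with 10 meaning complete control and 0 no effect. Evaluation took place twelve to sixteen days after the 2-leaf-stage plants were treated and kept in the greenhouse.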

bamyardgrass = experiment: Test B flood test barnyardgrass; type: in vivo, Echinochloa crus-galli; details: for Plant response rating, Barnyardgrass: scale 0 to 10, 0 is no effect, 10 is complete control; for Barnyardgrass plant response rating: scale of 0 to 10 where 0 is no effect and 10 is complete control
Outline: as §2

[1] = Postemergence, Rate 125 g/ha, scale 0 to 10, 0 is no effect, 10 is complete control
[2] = Postemergence, Rate 250 g/ha, scale 0 to 10, 0 is no effect, 10 is complete control
[3] = Postemergence, Rate 500 g/ha, scale of 0 to 10 where 0 is no effect and 10 is complete control
[4] = Preemergence, Rate 62 g/ha, scale 0 to 10 (0 no effect, 10 complete control)
[5] = Preemergence, Rate 125 g/ha, scale of 0 to 10 where 0 is no effect and 10 is complete control
[6] = Preemergence, Rate 250 g/ha, scale of 0 to 10 where 0 is no effect and 10 is complete control
[7] = Preemergence, Rate 500 g/ha, scale 0 to 10, 0 is no effect, 10 is complete control
[8] = Rate 62 g/ha, Postemergence, scale of 0 to 10 where 0 is no effect and 10 is complete control
[9] = Preemergence, Rate 250 g/ha, scale 0 to 10, 0 is no effect, 10 is complete control
[10] = Postemergence section (flood test species), Rate 500 g/ha
[11] = Rate 62 g/ha, Postemergence (flood test species)

CC(C)N(C(=O)n1oc(=O)n(CCC(F)(F)F)c1=O)c1ccc(F)cc1 [Compound 397]
Plant response rating, Blackgrass (blackgrass; [1]): 8
Plant response rating, Blackgrass (blackgrass; [2]): 9
Blackgrass plant response rating (blackgrass; [3]): 9
Plant response rating, Blackgrass (blackgrass; [4]): 7
Plant response rating, Blackgrass (blackgrass; [5]): 9
Blackgrass plant response rating (blackgrass; [6]): 10
Blackgrass plant response rating (blackgrass; [7]): 10
Blackgrass plant response rating (blackgrass; [8]): 6
Plant response rating, B. signalgrass (surinam grass; [1]): 0
Plant response rating, B. signalgrass (surinam grass; [2]): 2
B. signalgrass plant response rating (surinam grass; [3]): 8
Plant response rating, B. signalgrass (surinam grass; [4]): 3
Plant response rating, B. signalgrass (surinam grass; [5]): 6
B. signalgrass plant response rating (surinam grass; [6]): 9
B. signalgrass plant response rating (surinam grass; Preemergence, Rate 500 g/ha, scale of 0 to 10 where 0 is no effect and 10 is complete control): 10
B. signalgrass plant response rating (surinam grass; [8]): 0
Plant response rating, Cocklebur (cocklebur; [1]): 0
Plant response rating, Cocklebur (cocklebur; [2]): 0
Cocklebur plant response rating (cocklebur; [3]): 0
Plant response rating, Cocklebur (cocklebur; [4]): 0
Plant response rating, Cocklebur (cocklebur; [5]): 0
Cocklebur plant response rating (cocklebur; [9]): 0
Cocklebur plant response rating (cocklebur; [7]): 0
Cocklebur plant response rating (cocklebur; [8]): 0
Plant response rating, Corn (corn; [1]): 0
Plant response rating, Corn (corn; [2]): 0
Corn plant response rating (corn; [3]): 0
Plant response rating, Corn (corn; [4]): 0
Plant response rating, Corn (corn; [5]): 0
Corn plant response rating (corn; [9]): 3
Corn plant response rating (corn; [7]): 8
Corn plant response rating (corn; [8]): 0
Plant response rating, Crabgrass (crabgrass; [1]): 6
Plant response rating, Crabgrass (crabgrass; [2]): 9
Crabgrass plant response rating (crabgrass; [3]): 9
Plant response rating, Crabgrass (crabgrass; [4]): 10
Plant response rating, Crabgrass (crabgrass; [5]): 10
Crabgrass plant response rating (crabgrass; [9]): 10
Crabgrass plant response rating (crabgrass; [7]): 10
Crabgrass plant response rating (crabgrass; [8]): 2
Plant response rating, Giant foxtail (giant foxtail; [1]): 8
Plant response rating, Giant foxtail (giant foxtail; [2]): 9
Giant foxtail plant response rating (giant foxtail; [3]): 9
Plant response rating, Giant foxtail (giant foxtail; [4]): 10
Plant response rating, Giant foxtail (giant foxtail; [5]): 10
Giant foxtail plant response rating (giant foxtail; [9]): 10
Giant foxtail plant response rating (giant foxtail; [7]): 10
Giant foxtail plant response rating (giant foxtail; [8]): 8
Plant response rating, Morningglory (morningglory; [2]): 5
Morningglory plant response rating (morningglory; [3]): 6
Plant response rating, Morningglory (morningglory; [4]): 0
Plant response rating, Morningglory (morningglory; [5]): 0
Morningglory plant response rating (morningglory; [9]): 0
Morningglory plant response rating (morningglory; [7]): 4
Morningglory plant response rating (morningglory; [8]): 0
Plant response rating, Redroot pigweed (pigweed; [2]): 4
Redroot pigweed plant response rating (pigweed; [3]): 6
Plant response rating, Redroot pigweed (pigweed; [4]): 8
Plant response rating, Redroot pigweed (pigweed; [5]): 8
Redroot pigweed plant response rating (pigweed; [9]): 10
Redroot pigweed plant response rating (pigweed; [7]): 10
Redroot pigweed plant response rating (pigweed; [8]): 0
Plant response rating, Rape (rape; [2]): 0
Rape plant response rating (rape; [3]): 2
Plant response rating, Rape (rape; [4]): 3
Plant response rating, Rape (rape; [5]): 9
Rape plant response rating (rape; [9]): 10
Rape plant response rating (rape; [7]): 10
Rape plant response rating (rape; [8]): 0
Plant response rating, Sugarbeets (sugar beet; [2]): 0
Sugarbeets plant response rating (sugar beet; [3]): 0
Plant response rating, Sugarbeets (sugar beet; [4]): 0
Plant response rating, Sugarbeets (sugar beet; [5]): 4
Sugarbeets plant response rating (sugar beet; [9]): 7
Sugarbeets plant response rating (sugar beet; [7]): 9
Sugarbeets plant response rating (sugar beet; [8]): 0
Wheat plant response rating (wheat; [3]): 4
Plant response rating, Wheat (wheat; [4]): 0
Plant response rating, Wheat (wheat; [5]): 0
Wheat plant response rating (wheat; [9]): 2
Wheat plant response rating (wheat; [7]): 3
Wheat plant response rating (wheat; [8]): 0
Wild oats plant response rating (wild oat; [3]): 5
Plant response rating, Wild oats (wild oat; [4]): 2
Plant response rating, Wild oats (wild oat; [5]): 5
Wild oats plant response rating (wild oat; [9]): 7
Wild oats plant response rating (wild oat; [7]): 10
Wild oats plant response rating (wild oat; [8]): 0
Plant response rating, Nutsedge (purple nutsedge; [2]): 0
Nutsedge plant response rating (purple nutsedge; [3]): 0
Plant response rating, Nutsedge (purple nutsedge; [4]): 0
Plant response rating, Nutsedge (purple nutsedge; [5]): 0
Nutsedge plant response rating (purple nutsedge; [9]): 0
Nutsedge plant response rating (purple nutsedge; [7]): 0
Nutsedge plant response rating (purple nutsedge; [8]): 0
Rice plant response rating (rice; [10]): 0
Rice plant response rating (rice; [11]): 0
Plant response rating, Rice (rice; flood test species, listed under Postemergence, Rate 250 g/ha, scale 0 to 10, 0 is no effect, 10 is complete control): 0
Plant response rating, Barnyardgrass (bamyardgrass; Postemergence (flood test), Rate 125 g/ha): 0
Barnyardgrass plant response rating (bamyardgrass; [10]): 0
Barnyardgrass plant response rating (bamyardgrass; [11]): 0
Plant response rating, Barnyardgrass (bamyardgrass; flood test species, listed under Postemergence, Rate 250 g/ha): 0
